Measurements from US11584763B2, “Chromenopyridine derivatives as phosphatidylinositol phosphate kinase inhibitors” (HIBERCELL, INC., priority 2017, dated 2023).

Assays:
Assay type in all cases: biochemical
PIP4K2B = biological target: T1, PIP4K2B (Homo sapiens, UniProt P78356); assay: Trans-FI P kinase assay PIP4K2B (PIP4KtypeIIB inhibition assay); settings: compounds listed under IC50 bin headings; 100 uM GTP; read-out: Trans-FI P kinase assays: PIP4K2B IC50
T1 construct: made in house; host or cells: E. coli
T1 sequence (P78356 1-416): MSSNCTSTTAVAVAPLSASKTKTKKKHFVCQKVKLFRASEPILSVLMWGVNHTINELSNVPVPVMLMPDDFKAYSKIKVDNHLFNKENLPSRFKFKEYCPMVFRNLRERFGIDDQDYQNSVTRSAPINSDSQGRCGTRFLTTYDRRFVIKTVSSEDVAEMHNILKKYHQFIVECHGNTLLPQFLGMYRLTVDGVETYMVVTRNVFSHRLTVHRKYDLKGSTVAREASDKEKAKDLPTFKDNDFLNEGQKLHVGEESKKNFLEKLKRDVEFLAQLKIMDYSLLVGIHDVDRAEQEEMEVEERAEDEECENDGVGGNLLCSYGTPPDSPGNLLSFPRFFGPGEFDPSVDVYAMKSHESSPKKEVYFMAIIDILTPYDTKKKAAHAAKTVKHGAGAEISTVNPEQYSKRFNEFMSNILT
Procedure, shortened: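 Transcreener FI fluorescence read-out of GDP formed by E. coli-expressed GST-PIP4K2B (5 nM) using 100 uM GTP and 80 uM PI5P with DOPE carrier lipid, pH 7.3, 2 h reaction. Compounds (up to 4.8 uM) were preincubated with enzyme 1 h at 27 C; IC50 fitted from residual activity relative to no-inhibitor control.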

PIP4K 2A [1] = biological target: T2, PIP4K 2A (Homo sapiens, UniProt P48426); assay: Kinase Assay PIP4K2 A (PIP4KtypeIIA inhibition assay); parameters: made in house; host or cells: E. coli; settings: compounds listed under IC50 bin headings
T2 sequence (P48426 1-406): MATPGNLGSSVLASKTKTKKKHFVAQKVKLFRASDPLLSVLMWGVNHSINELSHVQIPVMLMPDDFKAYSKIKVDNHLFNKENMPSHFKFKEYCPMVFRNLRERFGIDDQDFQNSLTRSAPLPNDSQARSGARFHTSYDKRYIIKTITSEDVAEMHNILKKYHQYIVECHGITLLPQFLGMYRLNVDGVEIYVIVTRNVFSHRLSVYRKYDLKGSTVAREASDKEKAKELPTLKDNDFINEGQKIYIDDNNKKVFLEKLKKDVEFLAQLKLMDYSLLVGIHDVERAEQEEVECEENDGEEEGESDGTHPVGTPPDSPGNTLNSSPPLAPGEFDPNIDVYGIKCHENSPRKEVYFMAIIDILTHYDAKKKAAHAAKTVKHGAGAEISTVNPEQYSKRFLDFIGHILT
From the text: GST tagged PIP4KtypeIIA and B enzymes were overexpressed in E. Coli and purified to >80% homogeneity. Phosphatidyl inositol-5-phosphate (PI5P, Cat. #850152, Avanti Polar Lipids Inc.) was used as the lipid substrate and phosphatidyl ethanolamine (DOPE 18:1, Cat. #850725, Avanti Polar Lipids Inc.) was used as the carrier lipid for assays. Ultrapure ATP and GTP was purchased from Bellbrooke Labs. ADP Glo reagents were obtained from Promega. Transcreener FI reagent was obtained from Bellbrooke labs.
Enzyme preparation: GST-tagged PIP4KtypeIIA (5 uL, 1.43 mg/mL) was diluted (1:10) to 50 uL using HNE buffer. From the 1:10 diluted stock, a 6.4 uL aliquot was diluted further to 5 mL using HNE buffer to yield 5× enzyme stock (2.5 nM).
Lipid Preparation: In a 10 mL pyrex glass vial, 1 ug of PI5P and 1 ug of DOPE were suspended in 2.5 mL of HEPES buffer mix and 2.5 mL of H:E buffer. The contents were mixed and sonicated for 3 min to yield a translucent lipid stock.
Compound Preparation: Compounds were stored as 5 mM stocks in neat DMSO as room temperature in glass vials. 5 mM stocks were diluted to 2 mM and then serially diluted (3×) in neat DMSO in 96 well polypropylene plates. From the serially diluted stocks, 3 uL was delivered into 250 uL of 25% DMSO (in water) to generate 5× compound stocks. Typically, the highest compound conc. was 24 uM.
The assay volume was kept at 25 uL. To each well of the reaction plate, 10 uL of lipid stock (1:1 ratio PI5P:DOPE) was delivered. This was followed by the addition of 5 uL of compound in 25% DMSO. Then, to each well, 5 uL of 2.5 nM (5×) typeIIA enzyme was delivered. The contents were mixed well and incubated for 1 h at 27 C. After 1 h, reaction was initiated by adding 5 uL of 50 uM ATP and the contents were mixed well with a multi-channel pipetteman. The final concentration of the reagents are as follows: 50 mM HEPES, pH 7.3, 10 mM MgCl2, 20 mM NaCl, 0.01% v/v triton-X100, 5% DMSO, 10 uM ATP, 80 uM (2 ug) PI5P, 2 ug DOPE, and 0.5 nM PIP4KIIA. Typically, the highest conc. of compounds was 4.8 uM and the lowest conc. was 0.
After 1 hr, the reaction was quenched by adding 25 uL of ADP Glo reagent. The contents were incubated for 1 hr. Afterwards, 50 uL of kinase detection reagent was delivered. The contents were incubated for another hour. The luminescence was read using Molecular Devices Paradigm plate reader. […] The blanks were averaged and subtracted from all other wells. Using a calibration curve, RLU was converted to uM ADP (product). IC50 was calculated by plotting the residual activity (expressed as % No inhibitor control) vs. log [Inh. conc.]

PIP4K 2A [2] = biological target: T2, PIP4K 2A; assay: ADP-glo kinase assay PIP4K 2A; parameters: 4 nM PIP4K2A (full length protein, SignalChem); purchased SignalChem; settings: compounds listed under IC50 bin headings
Procedure, shortened: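 Inhibition was calculated versus DMSO controls from ADP-Glo luminescence and fitted to IC50 over a 10-point, threefold series. Compound was first pre-incubated 15 min at room temperature with PIP4K2A (full-length; 4 nM in the enzyme/substrate mix) and PI(5)P diC8 (100 μM in that mix). The reaction then ran for 1 h after adding 60 μM ATP solution, in MOPS pH 7.2/MgCl2/Tween buffer.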

SMILES	IC50 (PIP4K2B)	IC50 (PIP4K 2A [1])	IC50 (PIP4K 2A [2])
CC1Oc2cc(N3CCCC3=O)c(F)cc2-c2cnc(Nc3cccnc3)cc21 (stereo not drawn) [Example 46, 1-(9-fluoro-5-methyl-3-(pyridin-3-ylamino)-5H-chromeno[4,3-c]pyridin-8-yl)pyrrolidin-2-one]	100 to 1000 nM	1 to 10 nM	10 to 100 nM
CC1Oc2cc(N3CCCC3=O)ccc2-c2cnc(Nc3cccnn3)cc21 (stereo not drawn) [Example 128, 1-(5-methyl-3-(pyridazin-3-ylamino)-5H-chromeno[4,3-c]pyridin-8-yl)pyrrolidin-2-one]	100 to 1000 nM	1 to 10 nM	10 to 100 nM
CN(C)C(=O)c1ccc2c(c1)OC(C1CC1)c1cc(Nc3cnc4c(c3)N3C(=O)CC[C@H]3CO4)ncc1-2 (stereo partly drawn) [Example 36, 5-cyclopropyl-N,N-dimethyl-3-(((S)-9-oxo-6a,7,8,9-tetrahydro-6H-pyrido[2,3-b]pyrrolo[1,2-d][1,4]oxazin-2-yl)amino)-5H-chromeno[4,3-c]pyridine-8-carboxamide]	1 to 10 nM	≤ 1 nM	≤ 1 nM
CC1Oc2cc(N3CCCC3=O)c(F)cc2-c2cnc(Nc3cnc4c(c3)N3C(=O)CC[C@H]3CO4)cc21 (stereo partly drawn) [Example 47, (6aS)-2-((9-fluoro-5-methyl-8-(2-oxopyrrolidin-1-yl)-5H-chromeno[4,3-c]pyridin-3-yl)amino)-6,6a,7,8-tetrahydro-9H-pyrido[2,3-b]pyrrolo[1,2-d][1,4]oxazin-9-one]	1 to 10 nM	≤ 1 nM	≤ 1 nM
CC1Oc2cc(N3CCCC3=O)ccc2-c2cnc(Nc3cncc(N4CCN(Cc5cscn5)C4=O)c3)cc21 (stereo not drawn) [Example 56, 1-(5-((5-methyl-8-(2-oxopyrrolidin-1-yl)-5H-chromeno[4,3-c]pyridin-3-yl)amino)pyridin-3-yl)-3-(thiazol-4-ylmethyl)imidazolidin-2-one]	1 to 10 nM	≤ 1 nM	≤ 1 nM
O=C1CCCN1c1ccc2c(c1)OCc1cc(Nc3cnc4c(c3)N3C(=O)CC[C@H]3CO4)ncc1-2 [Example 75, (S)-2-((8-(2-oxopyrrolidin-1-yl)-5H-chromeno[4,3-c]pyridin-3-yl)amino)-6,6a,7,8-tetrahydro-9H-pyrido[2,3-b]pyrrolo[1,2-d][1,4]oxazin-9-one]	1 to 10 nM	≤ 1 nM	≤ 1 nM
CC1Oc2cc(N3CCCC3=O)ccc2-c2cnc(Nc3cncc(Nc4ccccn4)c3)cc21 (stereo not drawn) [Example 130, 1-(5-methyl-3-((5-(pyridin-2-ylamino)pyridin-3-yl)amino)-5H-chromeno[4,3-c]pyridin-8-yl)pyrrolidin-2-one]	10 to 100 nM	1 to 10 nM	1 to 10 nM

Now from value to molecule:

IC50 (PIP4K2B)	IC50 (PIP4K 2A [1])	IC50 (PIP4K 2A [2])	SMILES
100 to 1000 nM	≤ 1 nM	1 to 10 nM	Cc1cncc(Nc2cc3c(cn2)-c2ccc(N4CCCC4=O)cc2OC3C)c1 (stereo not drawn) [Example 97, 1-(5-methyl-3-((5-methylpyridin-3-yl)amino)-5H-chromeno[4,3-c]pyridin-8-yl)pyrrolidin-2-one]
1 to 10 nM	≤ 1 nM	≤ 1 nM	CS(=O)(=O)N1CCOc2ncc(Nc3cc4c(cn3)-c3ccc(N5CCCC5=O)cc3OC4)cc21 [Example 78, 1-(3-((1-(methylsulfonyl)-2,3-dihydro-1H-pyrido[2,3-b][1,4]oxazin-7-yl)amino)-5H-chromeno[4,3-c]pyridin-8-yl)pyrrolidin-2-one]
1 to 10 nM	≤ 1 nM	≤ 1 nM	COC(=O)N1CCOc2ncc(Nc3cc4c(cn3)-c3ccc(N5CCCC5=O)cc3OC4)cc21 [Example 77, methyl 7-((8-(2-oxopyrrolidin-1-yl)-5H-chromeno[4,3-c]pyridin-3-yl)amino)-2,3-dihydro-1H-pyrido[2,3-b][1,4]oxazine-1-carboxylate]
100 to 1000 nM	10 to 100 nM	10 to 100 nM	CC1Oc2cc(N3CCCC3=O)ccc2-c2cnc(Nc3cncnc3)cc21 (stereo not drawn) [Example 80, 1-(5-methyl-3-(pyrimidin-5-ylamino)-5H-chromeno[4,3-c]pyridin-8-yl)pyrrolidin-2-one]
1 to 10 nM	≤ 1 nM	≤ 1 nM	COC(=O)N1CCOc2ncc(Nc3cc4c(cn3)-c3ccc(N5CCCC5=O)cc3OC4C)cc21 (stereo not drawn) [Example 83, methyl 7-((5-methyl-8-(2-oxopyrrolidin-1-yl)-5H-chromeno[4,3-c]pyridin-3-yl)amino)-2,3-dihydro-1H-pyrido[2,3-b][1,4]oxazine-1-carboxylate]
10 to 100 nM	≤ 1 nM	1 to 10 nM	CC(C)S(=O)(=O)N1CCOc2ncc(Nc3cc4c(cn3)-c3ccc(N5CCCC5=O)cc3OC4)cc21 [Example 79, 1-(3-((1-(isopropylsulfonyl)-2,3-dihydro-1H-pyrido[2,3-b][1,4]oxazin-7-yl)amino)-5H-chromeno[4,3-c]pyridin-8-yl)pyrrolidin-2-one]
1 to 10 nM	≤ 1 nM	≤ 1 nM	CC(C)C(=O)N1CCOc2ncc(Nc3cc4c(cn3)-c3ccc(N5CCCC5=O)cc3OC4C)cc21 (stereo not drawn) [Example 84, 1-(3-((1-isobutyryl-2,3-dihydro-1H-pyrido[2,3-b][1,4]oxazin-7-yl)amino)-5-methyl-5H-chromeno[4,3-c]pyridin-8-yl)pyrrolidin-2-one]
10 to 100 nM	≤ 1 nM	10 to 100 nM	CC(=O)Nc1cncc(Nc2cc3c(cn2)-c2ccc(N4CCCC4=O)cc2OC3C)c1 (stereo not drawn) [Example 100, N-(5-((5-methyl-8-(2-oxopyrrolidin-1-yl)-5H-chromeno[4,3-c]pyridin-3-yl)amino)pyridin-3-yl)acetamide]
100 to 1000 nM	1 to 10 nM	10 to 100 nM	COc1ncc(Nc2cc3c(cn2)-c2ccc(N4CCCC4=O)cc2OC3C)cc1N(C)S(C)(=O)=O (stereo not drawn) [Example 90, N-(2-methoxy-5-((5-methyl-8-(2-oxopyrrolidin-1-yl)-5H-chromeno[4,3-c]pyridin-3-yl)amino)pyridin-3-yl)-N-methylmethanesulfonamide]
